One data set concerns Substrate RNA (SUB-156). The data set can be described thus: RNase P-mediated cleavage assay, single turnover conditions. In kind it is biochemical, hepatitis B virus (HBV). The settings on record: 200 nM EGS, 20 nM substrate, saturating RNase P, 60 min. Here is the method: RNase P-mediated cleavage assay--Human RNase P was purified from HeLa cells according to the published procedures (14). Substrate RNA (SUB-156, FIG. 24) was 5'-end labeled using T4 polynucleotide kinase and [γ-^32P]ATP. The labeling mixture was then heated to 85° C. for 1 min, diluted with RNase-free water, and purified by a MICROSPIN™ G-25 column (Pharmacia) according to the manufacturer's instructions. Cleavage reactions were conducted in a reaction buffer containing 50 mM Tris-HCl (pH 7.4), 25 mM KCl, 10 mM MgCl2 and 0.1 mM EDTA. EGS oligomers and ^32 p-5'-end-labeled RNA substrate were heated in the reaction buffer without MgCl2 to 85° C. for 1 min and then slowly cooled to room temperature. The cleavage reaction was initiated by adding 2 μl of 100 mM MgCl2 and 3 μl of RNase P (enzyme activity for this preparation: cleavage of 0.035 pmol of tRNA^Tyr precursor min^-1 μl^-1). The final reaction volume was 20 μl and the reaction was incubated at 37° C. for 60 min. […] For each sample, cleavage reactions were performed in duplicates and the average values were used. To ensure reproducibility, cleavage assays for each EGS were also repeated in two separate experiments. The all-RNA EGS-159 was used as the reference sample and its cleavage values were counted as 100%. Cleavage percentages of all other EGSs were normalized against EGS-159 (Rel. Cleavage %) except in FIG. 30 and FIG. 31 where absolute cleavage percentages (Abs. Cleavage %) were plotted.
(§1) For EGS-single turnover conditions, the final concentrations were 200 nM for EGS and 20(nM for the RNA substrate. For EGS-multiple turnover conditions, the final concentrations were 200 nM for the RNA substrate and 40 nM for EGS. When determination of the time-course was required, the reaction volume was increased to 40 μl. Aliquots of 5-8 μl were removed from the reaction mixture at different time points (e.g. 1, 5, 15, 30 and 60 min), quenched in formamide loading buffer, and loaded onto 15% polyacrylamide/8 M urea gels. Quantitation of the cleavage product and the remaining RNA substrate was achieved using a Molecular Dynamics PHOSPHORIMAGER™.
General considerations--To select lead nuclease-resistant oligonucleotide prototypes as external guide sequences among many possible modifications, a reliable yet rapid in vitro cleavage assay for routine screening was used. Human RNase P, a ribonucleoprotein, is composed of a 340-nt H1 RNA component and one or more proteins (for recent review, see Ref. 16). A 3-step screening strategy was devised: 1) All analogues once synthesized were tested by a fast qualitative cleavage assay under single turnover conditions with 10-fold excess of EGS over target RNA substrate for 60 min. […] This was the best cleavage condition used in this study. Any analogue with a reasonable activity (e.g. more than 5% cleavage) would not be missed, under these circumstances, due to the high detection sensitivity provided by PHOSPHORIMAGER™. 2) Promising analogues were then assayed for stability in 50% human serum.

Data set [1] is described as follows: Nuclease resistance studies in 50% human serum. The settings on record: 37° C., 24 h. In kind it is in vitro ADME. As for the experimental part:
Nuclease resistance studies--100 μl of EGS oligonucleotides (5 μM), containing a trace of 5'-end-labeled oligomers, were incubated at 37° C. for different time periods (0-24 h) with 50% human serum (Sigma, S-7023). 20 μl aliquots were diluted to 100 μl with RNase-free water, phenol/chlorform extracted, and ethanol precipitated. The residue was resuspended in 10 μl of TE and 10 μl of 2× gel loading buffer containing 98% formamide, 10 mM1 EDTA and 0.1% bromophenol blue. The mixture was heated to 85° C. for 1 min, quickly cooled on ice and frozen at -20° C. prior to electrophoresis on 15% polyacrylamide/8 M urea gels. Gels were subsequently scanned on a Molecular Dynamics PHOSPHORIMAGER™, and the stability profile for each, oligomer was estimated from the ratio of the remaining intact materials versus all radio-labeled materials (intact oligomers plus degradation products). Stability studies of non radio-labeled EGS oligomers using capillary gel electrophoresis were also carried out according to the method of Leeds et al. (15).

Data set [2] relates to EGS/target RNA complex (SUB-156) with human RNase P. Kind of data set: Measurements of kcat and A50. The class given is biochemical, hepatitis B virus (HBV). Here is the method: Measurements of kcat, Km and A50 --Measurements of these kinetic parameters were carried out using conditions similar to those described above (e.g. identical cleavage buffers). For kcat measurements, aliquots were taken every 30-60 s for the first 5 min. The logarithm of the percentage of cleavage (Abs. Cleavage %) was plotted against time, and the data points were fitted using a linear least-squaresanalysis. The slope represents kcat values. For Km measurements,a fixed amount of RNase P (0.6 μl) was used, while substrate concentrations (i.e. EGS/target RNA complex) varied from 25 to 500 nM. Several EGS/target RNA ratios were assayed including 1:1, 5:1 and 10:1. Attempts were made to obtain Km and Vmax values from linear Lineweaver-Burk or Eadie-Hofstee plots. The scattered values could not be fit as a hyperbolic function. For A50 measurements, the ratio between EGS and target RNA was kept as 10:1. Various amounts of RNase P (0.3 to 3 μl) were used to conduct a 60-min cleavage reaction. Percentage of cleavage was plotted against [RNase P] in μl, and 50% cleavage values (A50) were determined using a non-linear, least-squares routine (Kaleidagraph, Synergy Software). The amount of RNase P required to reach A50 was then converted to enzyme unit. 1 unit of RNase P represents the amount of RNase P that catalyzes the conversion of 1 pmol of tRNA^Tyr precursor to cleavage products per minute per μl of the enzyme preparation. 1 unit of RNase P preparation used for this study equals 28.57 μl.

For another data set, the system named is target RNA SUB-156. Kind of data set: RNase P-mediated cleavage, EGS-multiple turnover conditions. The class given is biochemical, hepatitis B virus (HBV). The settings on record: 5-fold of RNA target over EGS. As for the experimental part:
FIG. 31 is a graph of a time-course of cleavage with selected EGSs under EGS-multiple turnover conditions. Experiments were conducted under similar conditions as that used in FIG. 30 with the exception that the molar ratio between ^32 P-5'-end-labeled target RNA SUB-156 and the respective EGSs was 5:1. Saturing amounts of RNase P were employed. Aliquots were withdrawn from the cleavage reaction at different time points, quenched in formamide loading buffer and loaded on 15% polyacryladmide/8 M urea gels. Absolute percentages of cleavage are expressed on the Y-axis. EGS-159 (.circle-solid.) is the all-RNA EGS control and EGS-407 (.smallcircle.) is one of the lead modified prototypes.
as §1

Data set [3] deals with APL RNA (PML-RARα fusion junction). The data set can be described thus: Test tube cleavage assay. The class given is biochemical. The settings on record: 0.25 μM EGS, RNase P from HeLa cells. As for the experimental part:
Test tube cleavage assay: Three nanograms of linearized pAPL-3Z3 plasmid with HindIII restriction enzyme was transcribed as described in Example 1 in presence of ^32 P-ATP for 30 minutes 0.25 μM (final concentration) of EGS and 2 μl of a purified preparation of RNase P from HeLa cells (Bartkiewicz et al., Genes and Development, 3:488-499 (1989)) was added to the transcription reaction during the transcription. The reaction products were separated on a denaturing polyacrylamide gel and visualized using a Molecular Dynamics PHOSPHORIMAGER™.

The next data set deals with NB4/D5 cells. The data set can be described thus: MTT proliferation assay. The class given is cell-based, human. The conditions noted are these: for effect on cell growth as measured by MTT assay: NB4/D5 cells, 1 to 10 μM EGS, daily replacement; for concentration above which dose dependent inhibition of NB4 cell growth was observed: NB4 cells, MTT assay. Here is the method: Cell culture testing: NB4 cells, a maturation inducible cell line with t(15;17) translocation marker isolated from an acute promyelocytic leukemia patient (Lanotte et al. (1991)) was used to test the antiproliferative activity of EGSs targeted to PML-RARα. These cells respond to maturation-inducing effects of all-trans retinoic acid. One subclone of NB4 cells, NB4/D5, which uniformly responds to retinoic acid (Ahn et al. (1995)), was used for cell culture testing. The NB4 cells were grown in RPMI media containing 10% fetal bovine serum (Intergen, Purchase, N.Y.), 100 U/ml penicillin, 200 μg/ml streptomycin, and 20 mM glutamine with pCO2 of 5% at 37° C.
All treatments were done in triplicate and experiments were repeated more than once. NB4/D5 cells which were maintained in logarithmic growth phase were seeded at a density of 1×10^5 cells in 1 ml of RPMI medium in a 24 well tissue culture plate. Increasing concentrations of EGS were added to the cells. More than 90% of the media was removed every 24 hours and replaced with fresh media containing the same concentration of EGS. An aliquot of the cells was removed every 24 hours and an MTT proliferation assay (as described by Mosmann et al., Journal of Immunological Methods, 65:55 (1983)) was performed on these cells.
In general terms: Tetrazolium dyes change colour on reduction, which living cells bring about.

A further data set deals with HBV RNA. Kind of data set: RNase protection assay after transfection of pol III EGS expression vectors. The settings on record: HepG2.2.15 cells transfected with EGS plasmids. In kind it is cell-based. From the text: Cloning of EGS 2 and EGS 62: pREP9 (Invitrogen, San Diego, Calif.), an Epstein-Barr virus-based vector (Yates et al., Nature, 313:812-815 (1985)), was cut with XbaI and KpnI to remove the RSV LTR promoter sequence in the vector and a 244 nucleotide human U6 promoter (hU6; from nucleotide +1 to -244) was cloned into this region. cDNAs corresponding to EGS 2 and EGS 62 (see FIGS. 19 and 20, respectively) were synthesized on an Applied Biosystems DNA synthesizer, purified and cloned downstream of the hU6 promoter between KpnI and BamHI. The EGS sequence and the hU6 promoter sequence were excised using XbaI and BamHI and subcloned in pCEP4 (Invitrogen, San Diego, Calif.) that had been digested with BglII and NheI. […]
All plasmids were amplified in bacteria and the plasmid DNAs were purified using Qiagen (Qiagen Inc., Chatsworth, Calif.) columns. […] The protected fragments were separated on a 6% denaturing polyacrylamide gel, and the radioactivity associated with the protected bands were quantitated using a Molecular Dynamics PHOSPHORIMAGER™. The quantitation of the GAPDH RNA was used to normalize the samples.

The conditions of data set [4]: APL patients, cited from earlier work.

In the case of “EGS-407: lead prototype, U54 replaced with thymidine, SEQ ID NO. 46 (AGAUGAUAGAAGGTUAGAAUCCUUCACGCCGC; guide RNA; Thymidine at tRNA position 54, rest of chemistry not given here)”, the “RNase P-mediated cleavage activity compared to the all-RNA control” value in the data set with Substrate RNA (SUB-156) was “promising”. Besides, the “degradation in 50% human serum” value in data set [1] is given as “no degradation products were detected”. Further, the “A50 (amount of RNase P required to achieve 50% cleavage)” value in data set [2] (60 min, EGS in 10-fold excess relative to the RNA target) is 0.053 unit. In addition, the kcat result in data set [2] (single turnover, first 5 min) was “indistinguishable from that of the all-RNA control”. Moreover, the “turnover over a course of 60 min” value with target RNA SUB-156 is reported as “about 3 times”.
Take “APL A20: EGS SEQ ID NO. 11 targeted to the fusion junction of PML-RARα (guide GGGUCUCAGGCCCGGGUUCGAUUCCCGGUGGCUGC; chemistry not given here)”: in data set [3], the “cleavage of the APL RNA at the fusion junction” value was “induced cleavage”. Further, in the data set on NB4/D5 cells, the “effect on cell growth as measured by MTT assay” value is given as “inhibitory to cell growth” and the “concentration above which dose dependent inhibition of NB4 cell growth was observed” value is “above 3 μM”.
In the case of “EGS 2A: SEQ ID NO. 27, anti-HBV EGS expressed from hU6 pol III vector (guide GTGCTCGCTTCGGCAGCACTATACGCAGCGATCCGGGTTCCCGGCCAGGACACTATTTTT)”, the “inhibition of HBV RNA expression (ranking)” value in the data set on HBV RNA is given as “maximal inhibition”.
As to “APL 1009: EGS SEQ ID NO. 12 targeted to the fusion junction of PML-RARα (guide GUCUCAAGAAGGUUCGAAUCCUUCGGCUGCC; chemistry not given here)”, the “cleavage of the APL RNA at the fusion junction” value in data set [3] was “induced cleavage”. Moreover, in the data set with NB4/D5 cells, the “effect on cell growth as measured by MTT assay” value is recorded as “inhibitory to cell growth” and the “concentration above which dose dependent inhibition of NB4 cell growth was observed” value is “above 3 μM”.
For the compound `CC1=C(/C=C/C(C)=C/C=C/C(C)=C/C(=O)O)C(C)(C)CCC1` [TRETINOIN, all-trans retinoic acid], in data set [4] (several published studies), the “patients in whom remission was induced” value was “about 48%”. For the same compound, the “duration of the remission, average” value in data set [4] was 3.5 months.
